Assay type in all cases: cell-based
In test [1] the test system is spores of ATCC BBA1870 strain. Description: Inhibition of germination of C. difficile spores (MIC), strain ATCC BBA1870. The conditions noted are these: Clostridioides difficile, ATCCBBA1870STRAIN, 1 h, read-out: MIC (minimum concentration that completely inhibits spore germination). The method, then:
(§1) According to a method disclosed in “The Journal of Infectious Diseases. 2013; 207: 1498-504”, spores of ATCC BBA1870, ATCC 43255 and ATCC 630 strains were obtained by culture and purification, and stored at 4° C.
(§2) Spore preparation: the C. difficile spores stored at 4° C. were heat-activated for 30 min at 65° C., centrifuged at 9,400 g for 2 min, and washed three times to remove any self-germinating spores.
(§3) Control drug: three cholic acid derivatives, a compound CamSA, a compound 20β (prepared by the method of “Journal of Medicinal Chemistry. 2017, 60 (8): 3451-3471”), and a compound 12a (prepared by the method of “Journal of Medicinal Chemistry. 2018, 61, 6759-6778”), were used as control drugs.
(§4) Compound preparation: the compound of the present disclosure, and the positive control drugs CamSA, 20β, and 12a were dissolved in DMSO, to prepare a stock solution with a concentration of 10 mM (prepared for immediate use).
(§5) The detection was conducted in a 96-well cell culture plate at a constant temperature of 37° C.; a final volume of each well of the 96-well plate was […] and a buffer was the BHIS medium; 150 μl of spores and drugs were added to the well in advance, and 50 μl of 4 mg/ml sodium taurocholate was added; OD580 was detected every 1 min immediately using a microplate reader, for continuously 60 min. A germination agent control group and a non-germination group were set up; after the detection, a final OD value of each well was compared with an initial value, and compared with the germination agent group to calculate a germination rate and an inhibition rate. A formula for the germination rate was:
(§6) Inhibition rate=100%−germination rate.

Test [2] has as its system spores of ATCC 43255 strain. Kind of test: Inhibition of germination of C. difficile spores (MIC), strain ATCC 43255. The following applies: Clostridioides difficile, ATCC43255, 1 h, read-out: MIC (minimum concentration that completely inhibits spore germination). The method, then:
as §1, §2, §3, §4, §5, §6

Test [3] relates to spores of ATCC 630 strain. Description: Inhibition of germination of C. difficile spores (MIC), strain ATCC 630. The conditions noted are these: Clostridioides difficile, ATCC630, 1 h, read-out: MIC (minimum concentration that completely inhibits spore germination). The procedure: as §1, §2, §3, §4, §5, §6
Setting [4] is: strain 1870, sodium taurocholate as germinant, BHIS medium, 37° C., OD580 for 60 min.
The mark [5] stands for this setting: strain 43255, sodium taurocholate as germinant, BHIS medium, 37° C., OD580 for 60 min.
The mark [6] stands for this setting: strain 630, sodium taurocholate as germinant, BHIS medium, 37° C., OD580 for 60 min.

Structures are written as SMILES. Converted amounts (≈) assume the structure as drawn. Like-named read-outs stand apart in the source and are kept apart here.

For the compound `CC[C@H](NC(=O)C[C@@H](C)[C@H]1CC[C@H]2[C@@H]3C(=O)C[C@@H]4CC(=O)CC[C@]4(C)[C@H]3CC[C@]12C)c1ccccc1` [Compound I-59], the MIC in test [1] was found to be 128 µM (≈ 62.9 µg/mL); in test [2] it was 64 µM (≈ 31.5 µg/mL); in test [3], 64 µM (≈ 31.5 µg/mL).

Turning to `CC[C@@H](NC(=O)C[C@@H](C)[C@H]1CC[C@H]2[C@@H]3C(=O)C[C@@H]4CC(=O)CC[C@]4(C)[C@H]3CC[C@]12C)c1ccccc1` [Compound I-60], the MIC in test [1], in test [2] and in test [3] was 2 µM (≈ 0.983 µg/mL) in each case.

As to `C[C@H](CC(=O)NC(c1ccccc1)c1ccccc1)[C@H]1CC[C@H]2[C@@H]3C(=O)C[C@@H]4CC(=O)CC[C@]4(C)[C@H]3CC[C@]12C` [Compound I-61], the MIC in test [1] (setting [4]), in test [2] (setting [5]) and in test [3] (setting [6]) was 128 µM (≈ 69.1 µg/mL) throughout.

For the compound `C[C@H](CC(=O)NC(Cc1ccccc1)c1ccccc1)[C@H]1CC[C@H]2[C@@H]3C(=O)C[C@@H]4CC(=O)CC[C@]4(C)[C@H]3CC[C@]12C` (stereo partly drawn) [Compound I-62], the MIC worked out at 256 µM (≈ 142 µg/mL) in test [1], 128 µM (≈ 70.9 µg/mL) in test [2] and 128 µM (≈ 70.9 µg/mL) in test [3].

`C[C@H](CC(=O)NC(C(=O)O)c1ccccc1)[C@H]1CC[C@H]2[C@@H]3C(=O)C[C@@H]4CC(=O)CC[C@]4(C)[C@H]3CC[C@]12C` (stereo partly drawn) [Compound I-63]: the results for the MIC in test [1] (setting [4]), in test [2] (setting [5]) and in test [3] (setting [6]) were > 256 µM, 256 µM (≈ 130 µg/mL) and 256 µM (≈ 130 µg/mL), respectively.

For `C[C@H](CC(=O)NC(CC(=O)O)c1ccccc1)[C@H]1CC[C@H]2[C@@H]3C(=O)C[C@@H]4CC(=O)CC[C@]4(C)[C@H]3CC[C@]12C` (stereo partly drawn) [Compound I-64], the MIC in test [1] (setting [4]), in test [2] (setting [5]) and in test [3] (setting [6]) was > 256 µM each time.

With `C[C@H](CC(=O)NCc1ccccn1)[C@H]1CC[C@H]2[C@@H]3C(=O)C[C@@H]4CC(=O)CC[C@]4(C)[C@H]3CC[C@]12C` [Compound I-65], the MIC in test [1] (setting [4]), in test [2] (setting [5]) and in test [3] (setting [6]) was 128 µM (≈ 59.5 µg/mL) in each case.

For `CC(C)[C@@H](NC(=O)C[C@@H](C)[C@H]1CC[C@H]2[C@@H]3C(=O)C[C@@H]4CC(=O)CC[C@]4(C)[C@H]3CC[C@]12C)c1cccs1` [Compound I-66], the MIC in test [1] (setting [4]), in test [2] (setting [5]) and in test [3] (setting [6]) was 0.25 µM (≈ 0.128 µg/mL) each time.

For `CC(C)[C@H](NC(=O)C[C@@H](C)[C@H]1CC[C@H]2[C@@H]3C(=O)C[C@@H]4CC(=O)CC[C@]4(C)[C@H]3CC[C@]12C)c1cccs1` [Compound I-67], the MIC in test [1] (setting [4]), in test [2] (setting [5]) and in test [3] (setting [6]) was > 256 µM each time.

On to `CCC(NC(=O)C[C@@H](C)[C@H]1CC[C@H]2[C@@H]3C(=O)C[C@@H]4CC(=O)CC[C@]4(C)[C@H]3CC[C@]12C)c1ccc(Cl)s1` (stereo partly drawn) [Compound I-68], for which the MIC in test [1] (setting [4]) was determined as 1 µM (≈ 0.532 µg/mL); in test [2] (setting [5]), 2 µM (≈ 1.06 µg/mL); in test [3] (setting [6]), 1 µM (≈ 0.532 µg/mL).

On to `CC[C@H](NC(=O)C[C@@H](C)[C@H]1CC[C@H]2[C@@H]3C(=O)C[C@@H]4CC(=O)CC[C@]4(C)[C@H]3CC[C@]12C)c1ccc(Cl)s1` [Compound I-69], for which the MIC in test [1] (setting [4]) is 8 µM (≈ 4.26 µg/mL); in test [2] (setting [5]), 16 µM (≈ 8.52 µg/mL); in test [3] (setting [6]), 8 µM (≈ 4.26 µg/mL).

Turning to `CC[C@@H](NC(=O)C[C@@H](C)[C@H]1CC[C@H]2[C@@H]3C(=O)C[C@@H]4CC(=O)CC[C@]4(C)[C@H]3CC[C@]12C)c1ccc(Cl)s1` [Compound I-70], the values for the MIC in test [1] (setting [4]), in test [2] (setting [5]) and in test [3] (setting [6]) were 0.25 µM (≈ 0.133 µg/mL), 0.5 µM (≈ 0.266 µg/mL) and 0.25 µM (≈ 0.133 µg/mL), respectively.

`CC[C@H](NC(=O)C[C@@H](C)[C@H]1CC[C@H]2[C@@H]3C(=O)C[C@@H]4CC(=O)CC[C@]4(C)[C@H]3CC[C@]12C)c1ccc(Br)s1` [Compound I-71]: the MIC was found to be 32 µM (≈ 18.5 µg/mL) in test [1] (setting [4]), 16 µM (≈ 9.23 µg/mL) in test [2] (setting [5]) and 16 µM (≈ 9.23 µg/mL) in test [3] (setting [6]).

For the compound `CC[C@@H](NC(=O)C[C@@H](C)[C@H]1CC[C@H]2[C@@H]3C(=O)C[C@@H]4CC(=O)CC[C@]4(C)[C@H]3CC[C@]12C)c1ccc(Br)s1` [Compound I-72], the figures for the MIC in test [1] (setting [4]), in test [2] (setting [5]) and in test [3] (setting [6]) were 1 µM (≈ 0.577 µg/mL), 1 µM (≈ 0.577 µg/mL) and 0.5 µM (≈ 0.288 µg/mL), respectively.

For `CC[C@H](NC(=O)C[C@@H](C)[C@H]1CC[C@H]2[C@@H]3C(=O)C[C@@H]4CC(=O)CC[C@]4(C)[C@H]3CC[C@]12C)c1ccc(S(=O)(=O)O)s1` [Compound I-73], the MIC in test [1] (setting [4]), in test [2] (setting [5]) and in test [3] (setting [6]) was > 256 µM throughout.

On to `CC[C@@H](NC(=O)C[C@@H](C)[C@H]1CC[C@H]2[C@@H]3C(=O)C[C@@H]4CC(=O)CC[C@]4(C)[C@H]3CC[C@]12C)c1ccc(S(=O)(=O)O)s1` [Compound I-74], for which the MIC in test [1] (setting [4]), in test [2] (setting [5]) and in test [3] (setting [6]) was 16 µM (≈ 9.24 µg/mL) in each case.

`CC(C)C(NC(=O)C[C@@H](C)[C@H]1CC[C@H]2[C@@H]3C(=O)C[C@@H]4CC(=O)CC[C@]4(C)[C@H]3CC[C@]12C)c1ccc(Cl)s1` (stereo partly drawn) [Compound I-75]: the MIC in test [1] (setting [4]), in test [2] (setting [5]) and in test [3] (setting [6]) was 0.5 µM (≈ 0.273 µg/mL) in each case.

For `CC(C)[C@H](NC(=O)C[C@@H](C)[C@H]1CC[C@H]2[C@@H]3C(=O)C[C@@H]4CC(=O)CC[C@]4(C)[C@H]3CC[C@]12C)c1ccc(Cl)s1` [Compound I-76], the MIC in test [1] (setting [4]), in test [2] (setting [5]) and in test [3] (setting [6]) was > 256 µM each time.

As to `CC(C)[C@@H](NC(=O)C[C@@H](C)[C@H]1CC[C@H]2[C@@H]3C(=O)C[C@@H]4CC(=O)CC[C@]4(C)[C@H]3CC[C@]12C)c1ccc(Cl)s1` [Compound I-77], the MIC in test [1] (setting [4]), in test [2] (setting [5]) and in test [3] (setting [6]) was 0.25 µM (≈ 0.137 µg/mL) each time.

On to `CC(C)C(NC(=O)C[C@@H](C)[C@H]1CC[C@H]2[C@@H]3C(=O)C[C@@H]4CC(=O)CC[C@]4(C)[C@H]3CC[C@]12C)c1ccc(Br)s1` (stereo partly drawn) [Compound I-78], for which the MIC in test [1] (setting [4]) is 0.5 µM (≈ 0.295 µg/mL); in test [2] (setting [5]) it was 1 µM (≈ 0.591 µg/mL); in test [3] (setting [6]) it was 0.5 µM (≈ 0.295 µg/mL).

Consider `CC(C)[C@H](NC(=O)C[C@@H](C)[C@H]1CC[C@H]2[C@@H]3C(=O)C[C@@H]4CC(=O)CC[C@]4(C)[C@H]3CC[C@]12C)c1ccc(Br)s1` [Compound I-79], for which the MIC in test [1] (setting [4]) stood at 8 µM (≈ 4.73 µg/mL); in test [2] (setting [5]), 8 µM (≈ 4.73 µg/mL); in test [3] (setting [6]), 4 µM (≈ 2.36 µg/mL).

As for `CC(C)[C@@H](NC(=O)C[C@@H](C)[C@H]1CC[C@H]2[C@@H]3C(=O)C[C@@H]4CC(=O)CC[C@]4(C)[C@H]3CC[C@]12C)c1ccc(Br)s1` [Compound I-80], the MIC in test [1] (setting [4]), in test [2] (setting [5]) and in test [3] (setting [6]) was 0.125 µM (≈ 0.0738 µg/mL) throughout.

With `CC(C)C(NC(=O)C[C@@H](C)[C@H]1CC[C@H]2[C@@H]3C(=O)C[C@@H]4CC(=O)CC[C@]4(C)[C@H]3CC[C@]12C)c1ccc(S(=O)(=O)O)s1` (stereo partly drawn) [Compound I-81], the MIC in test [1] (setting [4]), in test [2] (setting [5]) and in test [3] (setting [6]) was 32 µM (≈ 18.9 µg/mL) throughout.

On to `CC(C)[C@H](NC(=O)C[C@@H](C)[C@H]1CC[C@H]2[C@@H]3C(=O)C[C@@H]4CC(=O)CC[C@]4(C)[C@H]3CC[C@]12C)c1ccc(S(=O)(=O)O)s1` [Compound I-82], for which the MIC in test [1] (setting [4]) was > 256 µM; in test [2] (setting [5]), 256 µM (≈ 152 µg/mL); in test [3] (setting [6]), > 256 µM.

Consider `CC(C)[C@@H](NC(=O)C[C@@H](C)[C@H]1CC[C@H]2[C@@H]3C(=O)C[C@@H]4CC(=O)CC[C@]4(C)[C@H]3CC[C@]12C)c1ccc(S(=O)(=O)O)s1` [Compound I-83], for which the MIC in test [1] (setting [4]), in test [2] (setting [5]) and in test [3] (setting [6]) was 16 µM (≈ 9.47 µg/mL) throughout.

Consider `CCC(NC(=O)C[C@@H](C)[C@H]1CC[C@H]2[C@@H]3[C@H](O)C[C@@H]4CC(=O)CC[C@]4(C)[C@H]3CC[C@]12C)c1cccs1` (stereo partly drawn) [Compound I-84], for which the MIC in test [1] (setting [4]), in test [2] (setting [5]) and in test [3] (setting [6]) was 1 µM (≈ 0.5 µg/mL) each time.

For the origin of these results see patent US20230135729A1, “COMPOUND WITH ANTI-SPORE ACTIVITY AND PHARMACEUTICAL COMPOSITION THEREOF” (priority 2020, published 2023).
